This note sets out measurements from EPA's ToxValDB 9.5 (doi:10.2903/j.efsa.2013.3220).

≈ marks a conversion by molar mass, not a printed value.

The subject of data set [1] is Daphnia magna. The following applies: chronic/long-term, duration: 21 days.
Data set [2] relates to Bibionidae. The following applies: chronic/long-term, duration: 28 days.
Data set [3] deals with Lepomis macrochirus. The following applies: acute; duration: 96 hours; mortality.
Data set [4] has as its system Rattus norvegicus. The following applies: for LD50: acute, oral, mortality.
Data set [5] relates to Pimephales promelas. The following applies: chronic/long-term; duration: 32 days; body weight.
Data set [6] concerns Tagia sp.
Data set [7] relates to Anas platyrhynchos.
For data set [8], the system named is Canidae. The following applies: chronic; duration: 1 years; oral; M/F; Dog Other; histopathology: nonneoplastic.
Data set [9] deals with Zea sp. The following applies: acute, duration: 14 days.
Data set [10] deals with Apis mellifera. The following applies: acute, mortality.
In data set [11] the test system is Colinus virginianus. The following applies: for LD50: acute, oral, mortality.
For data set [12], the system named is Typhlodromus pyri. In words: LR50; higher = less toxic. The following applies: chronic/long-term; duration: 7 days; mortality.
The test system of data set [13] is Aphidius rhopalosiphi. As to the kind of experiment: LR50; higher = less toxic. The following applies: acute; duration: 48 hours; mortality.

In the case of `CCO[C@@H]1[C@@H](OC)[C@H](C)O[C@@H](O[C@@H]2C[C@H]3CC[C@@H]4[C@@H](C=C5C(=O)[C@H](C)[C@@H](O[C@H]6CC[C@H](NC)[C@@H](C)O6)CCC[C@H](CC)OC(=O)C[C@H]54)[C@@H]3C2)[C@@H]1OC` [N-demethyl-175-J], the results for the NOEC in data set [1] and in data set [2] were 0.03 µg/L and 0.617 µg/L, respectively. The same compound showed an LC50 in [3] of 2.98 mg/L (≈ 4.06 µM). This compound registered an LD50 in [4] of 3130 mg/kg-day.
In the case of `CCO[C@@H]1[C@@H](OC)[C@H](C)O[C@@H](O[C@@H]2C[C@H]3CC[C@@H]4[C@@H](C=C5C(=O)[C@H](C)[C@@H](O[C@H]6CC[C@H](N(C)C=O)[C@@H](C)O6)CCC[C@H](CC)OC(=O)C[C@H]54)[C@@H]3C2)[C@@H]1OC` [N-demethyl-175-L], the NOEC in data set [1] turned out to be 0.027 µg/L. In addition, the LC50 in [3] was determined as 1.55 mg/L (≈ 2.03 µM).
In the case of `CCO[C@@H]1[C@@H](OC)[C@H](C)O[C@@H](OC2C[C@H]3CC[C@H]4C5CC(=O)O[C@@H](CC)CCC[C@H](O[C@H]6CC[C@H](N(C)C)[C@@H](C)O6)[C@@H](C)C(=O)C5=C[C@H]4[C@@H]3C2)[C@@H]1OC` (some centres not stated) [Spinetoram], the NOEC in data set [5] came out at 0.182 mg/L; in [1] (mobility), 0.0624 µg/L; in data set [6] (chronic/long-term, duration: 56 days, reproduction), 18.6 mg/kg; in data set [2] (M/F, development) it was 97.2 µg/kg; in data set [2] (development) it was 0.75 µg/L. Moreover, the LC50 in data set [6] (acute, duration: 14 days, mortality) is greater than 1000 mg/kg; in data set [3], 2.69 mg/L (≈ 3.6 µM). Also, the LD50 in data set [7] (acute, oral, unspecified, mortality) was greater than 2250 mg/kg-day; in [10] (duration: 48 hours, dermal) it was 0.024 µg/piece; in data set [10] (duration: 72 hours, oral, unspecified) it was 0.11 µg/piece; in [4], greater than 5000 mg/kg-day; in data set [11] (diet), greater than 2040 mg/kg-day; in data set [11] it was greater than 2250 mg/kg-day. For the same compound, the NOEL came to 149 mg/kg-day in [7] (reproductive) and 95 mg/kg-day in [11] (reproduction developmental). Also, the NOAEL – broadly, the highest dose or exposure tested at which no adverse effect was seen – in data set [8] was found to be 2.5 mg/kg-day; in data set [4] (reproduction developmental, reproduction), 10 mg/kg-day. Besides, the LEC in data set [9] (other) and in data set [9] (seedling emergence) was no more than 150 g/ha in each case. In addition, the LR50 in data set [12] was 0.132 g/ha; in data set [13], 0.0885 g/ha.
